Experimental data reported in patent publication US11964949B2, “Substituted phenyloxazolidinones for antimicrobial therapy” (priority 2015, dated 2024).
≈ marks a conversion by molar mass, not a printed value. Where two headings read alike, the source gives them in different places.

Columns and labels:
[1] = tested on: Mycobacterium tuberculosis H37Rv; assay: In vitro assay for antimicrobial susceptibility (microplate Alamar blue, MIC); assay type: cell-based; settings: Mycobacterium tuberculosis, read-out: MIC (μg/mL) against H37Rv
[2] = tested on: mitochondrial protein synthesis (MPS) in H9C2 cells; assay: In vitro assay for MPS inhibition (COX-1 / SDH-A ELISA in H9C2 cells); assay type: cell-based, rat; settings: Rattus norvegicus, read-out: IC50 (μM) MPS inhibition
[3] = M. tuberculosis H37Rv, 7H9 broth, Alamar blue
[4] = 120 h, H9C2 cells, 5 days incubation

Row | SMILES | MIC [1, 3] [µg/mL] | IC50 [2, 4] [µM] | MIC ([1]; H37RV) [µg/mL] | IC50 ([2]; H9c2, 120 h) [µM]
1 | O=C1O[C@@H](CO)CN1c1cc(F)c(N2CC3(COC3)C2)c(F)c1 [OTB-229, (R)-3-(3,5-Difluoro-4-(2-oxa-6-azaspiro[3.3]heptan-6-yl)phenyl)-5-(hydroxymethyl)oxazolidin-2-one] | 1.9 to 7.4 (≈ 5.82 to 22.7 µM) | > 100 |  | 
2 | O=C1O[C@@H](Cn2ccnn2)CN1c1ccc(N2CCCSCCC2)c(F)c1 [OBD-001, (R)-5-((1H-1,2,3-triazol-1-yl)methyl)-3-(3-fluoro-4-(1,5-thiazocan-5-yl)phenyl)oxazolidin-2-one] | 0.3 (≈ 0.766 µM) | 12 |  | 
3 | COC(=O)NC[C@H]1CN(c2cc(F)c(N3CC4(CSC4)C3)c(F)c2)C(=O)O1 [OTB-242, Methyl (S)-((3-(3,5-difluoro-4-(2-thia-6-azaspiro[3.3]heptan-6-yl)phenyl)-2-oxo-oxazolidin-5-yl)methyl)carbamate] | 0.02 to 0.06 (≈ 0.0501 to 0.15 µM) | 23 to 71 |  | 
4 | O=C(NC[C@H]1CN(c2cc(F)c(N3CC4(COC4)C3)c(F)c2)C(=O)O1)C1CCC1 [OTB-240, (S)—N-((3-(3,5-Difluoro-4-(2-oxa-6-azaspiro[3.3]heptan-6-yl)phenyl)-2-oxo-oxazolidin-5-yl)methyl)cyclobutanecarboxamide] | 0.24 to 0.6 (≈ 0.589 to 1.47 µM) | 19 to 67 |  | 
5 | CCCC(=O)NC[C@H]1CN(c2ccc(N3CCCSCCC3)c(F)c2)C(=O)O1 [OBD-003, (S)—N-((3-(3-fluoro-4-(1,5-thiazocan-5-yl)phenyl)-2-oxooxazolidin-5-yl)methyl)buty ramide] | 0.33 (≈ 0.806 µM) | > 100 |  | 
6 | O=C1O[C@@H](CO)CN1c1cc(F)c(N2CC3(CSC3)C2)c(F)c1 [OTB-516, (R)-3-(3,5-Difluoro-4-(2-thia-6-azaspiro[3.3]heptan-6-yl)phenyl)-5-(hydroxymethyl) oxazolidin-2-one] | 0.465 (≈ 1.36 µM) | 15.3 |  | 
7 | O=C(NC[C@H]1CN(c2cc(F)c(N3CC4CCC(C3)O4)c(F)c2)C(=O)O1)C1CC1 [OBD-252] | 0.47 (≈ 1.15 µM) | 32.3 |  | 
8 | O=C(NC[C@H]1CN(c2cc(F)c(N3CC4(CSC4)C3)c(F)c2)C(=O)O1)C1CC1 [OTB-243, (S)—N-((3-(3,5-Difluoro-4-(2-thia-6-azaspiro[3.3]heptan-6-yl)phenyl)-2-oxo-oxazolidin-5-yl)methyl)cyclopropanecarboxamide] | 0.03 (≈ 0.0733 µM) | 14 |  | 
9 | O=C(NC[C@H]1CN(c2cc(F)c(N3CC4CCC(C3)O4)c(F)c2)C(=O)O1)C1CCC1 [OBD-253] | 0.53 (≈ 1.26 µM) | 65 |  | 
10 | CC(=O)NC[C@H]1CN(c2ccc(N3CC4(C3)C[S+]([O-])C4)c(F)c2)C(=O)O1 [OTB-523] | 0.5 (≈ 1.31 µM) | 4 |  | 
11 | COC(=O)NC[C@H]1CN(c2ccc(N3C4CCC3C[S+]([O-])C4)c(F)c2)C(=O)O1 (stereo partly drawn) [OTB-518] |  |  | 3.5 (≈ 8.51 µM) | 73
12 | O=C(NC[C@H]1CN(c2ccc(N3CC4(C3)C[S+]([O-])C4)c(F)c2)C(=O)O1)C1CC1 [OTB-255] | 1.9 (≈ 4.66 µM) | 10 |  | 
13 | CC(=O)NC[C@H]1CN(c2ccc(N3CCCSCCC3)c(F)c2)C(=O)O1 [OTB-114, (S)—N-((3-(3-fluoro-4-(1,5-thiazocan-5-yl)phenyl)-2-oxooxazolidin-5-yl)methyl)acetamide] | 0.05 to 0.11 (≈ 0.131 to 0.288 µM) | 28 to 29 |  | 
14 | CCCC(=O)NC[C@H]1CN(c2ccc(N3[C@@H]4CC[C@H]3C[S+]([O-])C4)c(F)c2)C(=O)O1 (stereo partly drawn) [OBD-017, N-(((5S)-3-(3-Fluoro-4-((1R,5S)-3-oxido-3-thia-8-azabicyclo[3.2.1]octan-8-yl)phenyl)-2-oxooxazolidin-5-yl)methyl)butyramide] |  |  | 5.8 to 6.3 (≈ 13.7 to 14.9 µM) | 41
15 | CC(=O)NC[C@H]1CN(c2ccc(N3CC4(COC4)C3)c(F)c2)C(=O)O1 [OTB-202, (S)—N-((3-(3-Fluoro-4-(2-oxa-6-azaspiro[3.3]heptan-6-yl)phenyl)-2-oxo-oxazolidin-5-yl)methyl)acetamide] | 0.6 to 1.2 (≈ 1.72 to 3.43 µM) | 17 to 29 |  | 
16 | O=C1O[C@@H](Cn2nccn2)CN1c1ccc(N2CC3(C2)C[S+]([O-])C3)c(F)c1 [OTB-260-5B] | > 32 | > 100 |  | 
17 | COC(=O)NC[C@H]1CN(c2cc(F)c(N3C4CCC3COC4)c(F)c2)C(=O)O1 [OBD-052] |  |  | 0.95 (≈ 2.39 µM) | 13
18 | O=C(NC[C@H]1CN(c2ccc(N3[C@@H]4CC[C@H]3CSC4)c(F)c2)C(=O)O1)C1CCC1 [OTB-507, N—(((S)-3-(4-((1R,5S)-3-Thia-8-aza-bicyclo[3.2.1]octan-8-yl)-3-fluorophenyl)-2-oxo-oxazolidin-5-yl)methyl)cyclobutanecarboxamide] |  |  | 0.7 (≈ 1.67 µM) | 10

Row | SMILES | MIC [1, 3] [µg/mL] | IC50 [2, 4] [µM] | MIC ([1]; H37RV) [µg/mL] | IC50 ([2]; H9c2, 120 h) [µM]
19 | CCCC(=O)NC[C@H]1CN(c2cc(F)c(N3C4CCC3C[S+]([O-])C4)c(F)c2)C(=O)O1 (stereo partly drawn) [OBD-242] |  |  | 0.61 (≈ 1.38 µM) | > 100
20 | CS(=O)(=O)NC[C@H]1CN(c2cc(F)c(N3CC4(C3)C[S+]([O-])C4)c(F)c2)C(=O)O1 [OTB-516-2B] | 3 (≈ 6.89 µM) | > 100 |  | 
21 | O=C1O[C@@H](Cn2nccn2)CN1c1ccc(N2CCCSCCC2)c(F)c1 [OTB-113, (R)-5-[(2H-1,2,3-triazol-2-yl)methyl]-3-[3-fluoro-4-(1,5-thiazocan-5-yl)phenyl]oxazolidin-2-one] | 2 (≈ 5.11 µM) | > 100 |  | 
22 | CC(=O)NC[C@H]1CN(c2cc(F)c(N3CC4(COC4)C3)c(F)c2)C(=O)O1 [OTB-230, (S)—N-((3-(3,5-Difluoro-4-(2-oxa-6-azaspiro[3.3]heptan-6-yl)phenyl)-2-oxo-oxazolidin-5-yl)methyl)acetamide] | 0.2 (≈ 0.544 µM) | 13 |  | 
23 | O=C1O[C@@H](Cn2nccn2)CN1c1ccc(N2CC3(CSC3)C2)c(F)c1 [OTB-260-5A] | 0.44 (≈ 1.17 µM) | > 100 |  | 
24 | O=C1O[C@@H](Cn2ccnn2)CN1c1cc(F)c(N2CCCSCC2)c(F)c1 [OTB-411, (R)-5-((1H-1,2,3-triazol-1-yl)methyl)-3-(3,5-difluoro-4-(1,4-thiazepan-4-yl)phenyl)oxazolidin-2-one] | 0.124 (≈ 0.314 µM) | 8.73 |  | 
25 | O=C1O[C@@H](Cn2ccnn2)CN1c1ccc(N2CC3(C2)C[S+]([O-])C3)c(F)c1 [OTB-247] | 1.2 to 1.4 (≈ 3.07 to 3.58 µM) | 10 |  | 
26 | CNC(=O)OC[C@H]1CN(c2ccc(N3CC4(CSC4)C3)c(F)c2)C(=O)O1 [OTB-260-4A] |  | > 100 | 0.39 (≈ 1.02 µM) | 
27 | CC(C)(C)C(=O)NC[C@H]1CN(c2ccc(N3CCCSCC3)c(F)c2)C(=O)O1 [OTB-115, (S)—N-[[3-(3-Fluoro-4-(1,4-thiazepan-4-yl)phenyl)-2-oxo-oxazolidin-5-yl]methyl]pivalamide] | 3.73 (≈ 9.12 µM) | > 100 |  | 
28 | O=C(NC[C@H]1CN(c2ccc(N3[C@@H]4CC[C@H]3CSC4)c(F)c2)C(=O)O1)C1CC1 [OTB-506, N—(((S)-3-(4-((1R,5S)-3-Thia-8-azabicyclo[3.2.1]octan-8-yl)-3-fluorophenyl)-2-oxo-oxazolidin-5-yl)methyl)cyclopropanecarboxamide] |  |  | 1 (≈ 2.47 µM) | 8
29 | O=C(NC[C@H]1CN(c2ccc(N3CCCSCC3)c(F)c2)C(=O)O1)C1CC1 [OTB-413, (S)—N-((3-(3-Fluoro-4-(1,4-thiazepan-4-yl)phenyl)-2-oxo-oxazolidin-5-yl)methyl)cyclopropanecarboxamide] | 0.108 (≈ 0.274 µM) | 9.13 |  | 
30 | CCCC(=O)NC[C@H]1CN(c2cc(F)c(N3C4CCC3CSC4)c(F)c2)C(=O)O1 [OBD-029, N—(((S)-3-(4-(3-thia-8-aza-bicyclo[3.2.1]octan-8-yl)-3,5-difluorophenyl)-2-oxooxazolidin-5-yl)methyl)butyramide] |  |  | 0.11 (≈ 0.259 µM) | > 100
31 | CCCC(=O)OC[C@H]1CN(c2ccc(N3CCCSCCC3)c(F)c2)C(=O)O1 [OTB-110, (R)-[3-[3-Fluoro-4-(1,5-thiazocan-5-yl)phenyl]-2-oxo-5-oxazolidinyl]methyl butyrate] | 0.125 (≈ 0.304 µM) | > 100 |  | 
32 | O=C1O[C@@H](Cn2nccn2)CN1c1ccc(N2CCCSCC2)c(F)c1 [OTB-106, (R)-5-[(2H-1,2,3-Triazol-2-yl)methyl]-3-[3-fluoro-4-(1,4-thiazepan-4-yl)phenyl]oxazolidin-2-one] | 2 (≈ 5.3 µM) | > 100 |  | 
33 | NC[C@H]1CN(c2cc(F)c(N3C4CCC3C[S+]([O-])C4)c(F)c2)C(=O)O1 (stereo partly drawn) [OBD-087] |  |  | 0.86 (≈ 2.32 µM) | > 100
34 | CS(=O)(=O)NC[C@H]1CN(c2cc(F)c(N3CC4(CSC4)C3)c(F)c2)C(=O)O1 [OTB-516-2A] | 0.05 (≈ 0.119 µM) | > 100 |  | 
35 | O=C1O[C@@H](Cn2ccnn2)CN1c1cc(F)c(N2CC3(C2)C[S+]([O-])C3)c(F)c1 [OTB-522] | 1 (≈ 2.44 µM) | 38 |  | 
36 | COC(=O)NC[C@H]1CN(c2cc(F)c(N3CC4(COC4)C3)c(F)c2)C(=O)O1 [OTB-231, Methyl (S)-((3-(3,5-difluoro-4-(2-oxa-6-azaspiro[3.3]heptan-6-yl)phenyl)-2-oxo-oxazolidin-5-yl)methyl)carbamate] | 0.24 to 0.7 (≈ 0.626 to 1.83 µM) | 37 to 63 |  | 
